Source: patent US20200147116A1, “Use of Paeoniflorin-6'-O-benzenesulfonate in treatment of Sjögren's syndrome” (NINGBO ZHIMING BIOTECHNOLOGY CO., LTD., priority 2017, published 2020)
Marks after values point to notes of the source that are not given here.

Legend:
Format in all cases: in vivo
[1] = tested on: NOD model mice; experiment: Organic indexes (spleen, submaxillary gland, thymus) in NOD model mice
[2] = tested on: spleen B lymphocyte; experiment: Spleen B lymphocyte proliferation in SS model mice (FIG. 3)
Text: FIG. 3 Effects of CP-25 on spleen B lymphocyte proliferation in SS model mice.

[3] = tested on: spleen T lymphocytes; experiment: Spleen T lymphocyte proliferation in NOD model mice (FIG. 12A)
Text: (§1) FIG. 12 Effects of CP-25 on spleen T and B lymphocyte proliferation in NOD model mice.
(§2) A: T lymphocytes; B: B lymphocytes

[4] = tested on: spleen CD4+ CD25+ FOXP3+ T lymphocytes; experiment: Spleen CD4+ CD25+ FOXP3+ T lymphocytes in NOD model mice (FIG. 14)
Text: FIG. 14 Effects of CP-25 on spleen CD4^+ CD25^+ FOXP3^+ T lymphocytes in NOD model mice.

[5] = tested on: NOD mice; experiment: Saliva amount in NOD mice; settings: for Saliva amount in NOD mice, Pre-administration: baseline before administration
Method: Before measurement, mice were anesthetized via intraperitoneal injection of 0.05 ml of 2.4% pentobarbital sodium, and the satisfactory anesthesia was smooth breathing, corneal reflex disappearance and limb muscle relaxation. After complete anesthesia, a mouse was placed in slightly tilted trendelenburg position, and its body was kept warm using the heater. The mouse was injected intraperitoneally with 0.1 ml of 0.025 mg/ml Pilocarpine, and 5 min later, a weighed cotton ball was placed in the mouth of the mouse for 10 min. After taking the ball out, the saliva weight of mice was measured by the wet weight method.
Therapeutic effects of on Sjögren's syndrome CP-25 in NOD mice.

[6] = tested on: spleen CD4+ CD25+FOXP3+ T lymphocytes; experiment: Spleen CD4+ CD25+ FOXP3+ T lymphocytes in SS model mice (FIG. 5, 6); settings: FIG. 6
Text: FIG. 5 Effects of CP-25 on spleen CD4^+ CD25^+FOXP3^+ T lymphocytes in SS model mice.
FIG. 6 Effects of CP-25 on spleen CD4^+ CD25^+FOXP3^+ T lymphocytes in SS model mice.

[7] = tested on: submaxillary glands in NOD mice; experiment: Pathological grading of submaxillary glands in NOD mice; settings: for Score: mice with submaxillary gland pathology Grade 0 / Score: mice with submaxillary gland pathology Grade I / Score: mice with submaxillary gland pathology Grade II / Score: mice with submaxillary gland pathology Grade III / Score: mice with submaxillary gland pathology Grade IV: NOD mice
Method: (§3) Mice were sacrificed after two weeks of administration, and then submaxillary glands of four mice of each group were removed and pathologically observed. At first, the submaxillary gland should be fixed in 10% buffered formalin for 24 h, followed by washing, dehydration and clearing, wax-filling, embedding, sectioning and finally H&E staining. […] Results were graded pathologically.
(§4) Note: The histological findings graded of submaxillary glands according to the Chisholm-Mason scale; grade 0, absence of lymphocytic infiltration; grade I, slight lymphocytic infiltration; grade II, moderate lymphocytic infiltration; grade III, one focus of lymphocytic infiltration per 4 mm^2 tissue; grade IV, more than one focus of lymphocytic infiltration per 4 mm^2 tissue (Note: One focus of lymphocytic infiltration has been defined as an aggregate of 50 or more lymphocytes gathered in the labial gland stroma per 4 mm^2 of tissue.

[8] = tested on: spleen CD11c+ CD80+ DC; experiment: Spleen CD11c+ CD80+ DC in SS model mice (FIG. 8)
Text: FIG. 8 Effects of CP-25 on spleen CD11c^+ CD80^+ DC in SS model mice.

[9] = tested on: spleen CD19+ CD27+ B lymphocytes; experiment: Spleen CD19+ CD27+ B lymphocytes in SS model mice (FIG. 7)
Text: FIG. 7 Effects of CP-25 on spleen CD19^+ CD27^+ B lymphocytes in SS model mice.

[10] = tested on: submaxillary gland in SS mice; experiment: Histopathological examination and grading of submaxillary gland in SS mice (H&E, Chisholm-Mason scale); settings: for Score: mice with submaxillary gland pathology Grade 0 / Score: mice with submaxillary gland pathology Grade I / Score: mice with submaxillary gland pathology Grade II / Score: mice with submaxillary gland pathology Grade III / Score: mice with submaxillary gland pathology Grade IV: two weeks of administration, four mice of each group
Method: as §3, §4

[11] = tested on: spleen CD11c+ MHC-II+ DC; experiment: Spleen CD11c+ MHC-II+ DC in SS model mice (FIG. 9)
Text: FIG. 9 Effects of CP-25 on spleen CD11c^+ MHC-II^+ DC in SS model mice.

[12] = tested on: Sjögren's syndrome model mice; experiment: Water intake in Sjögren's syndrome model mice; settings: therapeutic mice, after a week of administration; model control always tends to rise
Method: In this invention, low dose (17.5 mg/kg), medium dose (35 mg/kg) and high dose (70 mg/kg) of CP-25 were respectively administrated by gavage to each of randomly assigned group of Sjögren's syndrome model mice for two weeks. Water intake, saliva amount and submaxillary gland pathological analysis and score were determined respectively, on the day before administration, the 7th day and 14th day after administration. The therapeutic effects of CP-25 on Sjögren's syndrome were evaluated by comparison of changes of each index before and after treatment.
However, the water intake in mice of model control group always tends to rise.

[13] = tested on: spleen B lymphocytes; experiment: Spleen B lymphocyte proliferation in NOD model mice (FIG. 12B)
Text: as §1, §2

C[C@@]12C[C@@]3(O)O[C@H](O1)C1(COC(=O)c4ccccc4)[C@@H]3CC12OC1OC(COS(=O)(=O)c2ccccc2)C(O)C(O)C1O (stereo partly drawn) [CP-25, Paeoniflorin-6′-O-benzenesulfonate]
Spleen index ([1]; 17.5 mg/kg): 9.5 ± 4.2 mg/g
Submaxillary gland index ([1]; 17.5 mg/kg): 4.5 ± 0.8^ mg/g
Thymus index ([1]; 17.5 mg/kg): 1.3 ± 0.7 mg/g
Spleen index ([1]; 35 mg/kg): 4.2 ± 0.6 mg/g
Submaxillary gland index ([1]; 35 mg/kg): 4.3 ± 0.6 mg/g
Thymus index ([1]; 35 mg/kg): 1.1 ± 0.6 mg/g
Spleen index ([1]; 70 mg/kg): 4.3 ± 0.7 mg/g
Submaxillary gland index ([1]; 70 mg/kg): 4.2 ± 0.6 mg/g
Thymus index ([1]; 70 mg/kg): 1.4 ± 0.5 mg/g
Increasing of submaxillary gland index (in words) ([1]; Example 5): significantly suppress the increasing
Spleen B lymphocyte proliferation [2]: significantly inhibit
Spleen T lymphocyte proliferation [3]: significantly inhibit
Ratio of spleen CD4+ CD25+FOXP3+ Treg lymphocytes [4]: significantly improve
Saliva amount in NOD mice, One week after administration ([5]; 17.5 mg/kg): 15.20 ± 1.04 mg/each mouse/10 min
Saliva amount in NOD mice, Two weeks after administration ([5]; 17.5 mg/kg): 14.25 ± 1.46 mg/each mouse/10 min
Saliva amount in NOD mice, One week after administration ([5]; 35 mg/kg): 15.60 ± 1.50 mg/each mouse/10 min
Saliva amount in NOD mice, Two weeks after administration ([5]; 35 mg/kg): 15.25 ± 1.36 mg/each mouse/10 min
Saliva amount in NOD mice, One week after administration ([5]; 70 mg/kg): 18.20 ± 1.58^#Δ mg/each mouse/10 min
Saliva amount in NOD mice, Two weeks after administration ([5]; 70 mg/kg): 18.25 ± 1.50 mg/each mouse/10 min
Saliva amount in NOD mice, Pre-administration ([5]; dose group 17.5 mg/kg): 19.50 ± 1.38 mg/each mouse/10 min
Saliva amount in NOD mice, Pre-administration ([5]; dose group 35 mg/kg): 19.33 ± 3.20 mg/each mouse/10 min
Saliva amount in NOD mice, Pre-administration ([5]; dose group 70 mg/kg): 19.51 ± 1.87 mg/each mouse/10 min
Saliva amount (in words) ([5]; NOD model mice, Example 4): significantly increase
Onset time of curative effects versus comparators ([5]; NOD model mice, Example 4, saliva amount): earlier than that of TGP, or Pae
Ratio of CD4+ CD25+FOXP3+ Treg lymphocytes [6]: increase
Score: mice with submaxillary gland pathology Grade 0 ([7]; 17.5 mg/kg): 0
Score: mice with submaxillary gland pathology Grade I ([7]; 17.5 mg/kg): 0
Score: mice with submaxillary gland pathology Grade II ([7]; 17.5 mg/kg): 0
Score: mice with submaxillary gland pathology Grade III ([7]; 17.5 mg/kg): 1
Score: mice with submaxillary gland pathology Grade IV ([7]; 17.5 mg/kg): 3
Score: mice with submaxillary gland pathology Grade 0 ([7]; 35 mg/kg): 0
Score: mice with submaxillary gland pathology Grade I ([7]; 35 mg/kg): 0
Score: mice with submaxillary gland pathology Grade II ([7]; 35 mg/kg): 0
Score: mice with submaxillary gland pathology Grade III ([7]; 35 mg/kg): 1
Score: mice with submaxillary gland pathology Grade IV ([7]; 35 mg/kg): 3
Score: mice with submaxillary gland pathology Grade 0 ([7]; 70 mg/kg): 0
Score: mice with submaxillary gland pathology Grade I ([7]; 70 mg/kg): 0
Score: mice with submaxillary gland pathology Grade II ([7]; 70 mg/kg): 0
Score: mice with submaxillary gland pathology Grade III ([7]; 70 mg/kg): 3
Score: mice with submaxillary gland pathology Grade IV ([7]; 70 mg/kg): 1 ^#
Pathological changes in submaxillary gland ([7]; NOD model mice, Example 6): apparently ameliorate the pathological changes
Expression of surface molecular CD80+ on spleen CD11c+ DC [8]: significantly inhibit
Ratio of spleen CD19+ CD27+ B lymphocytes [9]: significantly increase
Score: mice with submaxillary gland pathology Grade 0 ([10]; 17.5 mg/kg): 0
Score: mice with submaxillary gland pathology Grade I ([10]; 17.5 mg/kg): 0
Score: mice with submaxillary gland pathology Grade II ([10]; 17.5 mg/kg): 0
Score: mice with submaxillary gland pathology Grade III ([10]; 17.5 mg/kg): 1
Score: mice with submaxillary gland pathology Grade IV ([10]; 17.5 mg/kg): 3
Score: mice with submaxillary gland pathology Grade 0 ([10]; 35 mg/kg): 0
Score: mice with submaxillary gland pathology Grade I ([10]; 35 mg/kg): 0
Score: mice with submaxillary gland pathology Grade II ([10]; 35 mg/kg): 0
Score: mice with submaxillary gland pathology Grade III ([10]; 35 mg/kg): 1
Score: mice with submaxillary gland pathology Grade IV ([10]; 35 mg/kg): 3
Score: mice with submaxillary gland pathology Grade 0 ([10]; 70 mg/kg): 0
Score: mice with submaxillary gland pathology Grade I ([10]; 70 mg/kg): 0
Score: mice with submaxillary gland pathology Grade II ([10]; 70 mg/kg): 0
Score: mice with submaxillary gland pathology Grade III ([10]; 70 mg/kg): 3
Score: mice with submaxillary gland pathology Grade IV ([10]; 70 mg/kg): 1^#
Pathological changes in submaxillary gland ([10]; Example 3, dose not given): apparently ameliorate the pathological changes
Pathological changes in submaxillary glands (H&E staining score, rank-sum test) ([10]; high dose of CP-25): apparently ameliorate the pathological changes
Expression of surface molecular MHC-II+ on spleen CD11c+ DC [11]: significantly inhibit
Water intake [12]: begins to drop off
Spleen B lymphocyte proliferation [13]: significantly inhibit
